Results on 1 compound are retold here after patent US4859468A, “Compositions and method for decomposing adipose tissue” (Senju Pharmaceutical Co., Ltd., priority 1985, dated 1989).

In the test the test system is free fat cell. As to the kind of experiment: Activity on the adrenaline's decomposing action on free fat cell (free fatty acid liberation with adrenaline). The format is cell-based, male Wister rat. Conditions: adrenaline 0.5 μg/ml alone.

Protocol: Eight grams of fat tissue at epididymis of male Wister rat (body weight 150-200 g) was sliced and was added into 20 ml of a Krebs-Ringer phosphoric acid buffer solution (pH 7.4) (hereinafter referred to as KRP buffer solution) containing 20 mg of glucose, 4% of bovine serum albumin and 20 mg of collagenase. The mixture was incubated at 37° C. for 50 min, and after filtration with nylon mesh, was centrifuged at 500 rpm for 30 sec; then, any portion that was not the fat cell layer was sucked out. The fat cell layer was washed twice with the KRP buffer solution and then diluted to 20 ml by addition of the KRP buffer solution. To 0.25 ml of this suspension, 0.5 ml of KRP buffer solution containing 5% of bovine serum albumin and 0.1 ml of the liquids to be tested or KRP buffer solution as control were added; these mixtures were incubated at 37° C. for 2 hr and the freed fatty acids were assayed by Dole's method (V. P. Dole, J. Clin. Invest., 35, 150 (1956)).

Take `CNCC(O)c1ccc(O)c(O)c1` (stereo not shown) [adrenaline]: the “action of adrenaline on free fat cell (in words)” value is recorded as “free fatty acid is freed”.
